According to article PMC12686490 (Nature Communications, 2025):
Numbered stars: 1 amine (or outer) side, 2 acyl side, 3 side chain; on linkers, the order of the positions; unused ones are H or OH. Bridge positions count the residues as written; N and C are the ends. Square brackets hold non-standard residues; d marks the D form. Peptide text beside a SMILES is read from it. X1 = O=C(C1(O)C[C@H](O)[C@@H](N[*:1])[C@H]([C@H](O)[C@H](O)CO)O1)[*:2]; X2 = CC(=O)NC(C(=O)OC(C(C)C)C(N[*:1])C(=O)[*:2])C(O)C(C)C; NMeW = CN[C@@H](Cc1c[nH]c2ccccc12)C(=O)O; Phe(3-Br) = N[C@@H](Cc1cccc(Br)c1)C(=O)O; PhLac = O=C(O)[CH](O)Cc1ccccc1; NMeT = CN[CH](C(=O)O)[CH](C)O; Nle = CCCC[C@H](N)C(=O)O; NMeA = CN[CH](C)C(=O)O; NMeDha = C=C(NC)C(=O)O

Tests used:
[1] = system: CCKBR-LTP in the auditory cortex; experiment: MEA recording, TBS-induced CCKBR-LTP in auditory cortex slices of C57 mice; parameters: species or system mouse; details: for Effect on TBS-induced CCKBR-LTP: one-hour preincubation: 100 nM YF476, 10 μM U-73122, 50 μM 2-APB, 20 μM YM254890, 100 μM barbadin, 10 μM H-89, 300 ng PTX injected into AC 24-48 h before
GPR173 / β-arrestin2 = GPR173 / β-arrestin2 (Homo sapiens, UniProt Q9NS66); experiment: BRET-based β-arrestin2 assay, 293T-GPR173 cells; format: cell-based; details: up to 10 μM
Chain of GPR173 / β-arrestin2 (Q9NS66 whole entry): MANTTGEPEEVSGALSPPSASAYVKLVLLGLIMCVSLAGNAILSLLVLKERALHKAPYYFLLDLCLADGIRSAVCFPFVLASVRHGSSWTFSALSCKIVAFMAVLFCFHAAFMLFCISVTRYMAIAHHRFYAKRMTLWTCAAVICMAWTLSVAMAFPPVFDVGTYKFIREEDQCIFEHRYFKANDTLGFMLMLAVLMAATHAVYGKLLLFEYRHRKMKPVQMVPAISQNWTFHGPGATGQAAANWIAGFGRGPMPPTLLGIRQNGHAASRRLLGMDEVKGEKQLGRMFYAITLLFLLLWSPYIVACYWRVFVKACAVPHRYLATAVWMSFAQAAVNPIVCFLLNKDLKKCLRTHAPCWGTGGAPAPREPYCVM

[2] = system: CCKBR-LTP in the auditory cortex; experiment: MEA recording, drug plus LFS-induced LTP in auditory cortex slices; parameters: species or system mouse; details: 200 nM, 10 min, AC slices of C57 mice
GPR173 / β-arrestin1 = GPR173 / β-arrestin1 (Homo sapiens, UniProt Q9NS66); experiment: BRET-based β-arrestin1 assay, 293T-GPR173 cells; format: cell-based; details: up to 10 μM
Chain of GPR173 / β-arrestin1 (Q9NS66 whole entry): as above

CCKBR [3] = biological target: T1, CCKBR (Homo sapiens, UniProt P32239); experiment: PRESTO-Tango assay; format: cell-based; details: screening
T1 sequence (P32239 1-447): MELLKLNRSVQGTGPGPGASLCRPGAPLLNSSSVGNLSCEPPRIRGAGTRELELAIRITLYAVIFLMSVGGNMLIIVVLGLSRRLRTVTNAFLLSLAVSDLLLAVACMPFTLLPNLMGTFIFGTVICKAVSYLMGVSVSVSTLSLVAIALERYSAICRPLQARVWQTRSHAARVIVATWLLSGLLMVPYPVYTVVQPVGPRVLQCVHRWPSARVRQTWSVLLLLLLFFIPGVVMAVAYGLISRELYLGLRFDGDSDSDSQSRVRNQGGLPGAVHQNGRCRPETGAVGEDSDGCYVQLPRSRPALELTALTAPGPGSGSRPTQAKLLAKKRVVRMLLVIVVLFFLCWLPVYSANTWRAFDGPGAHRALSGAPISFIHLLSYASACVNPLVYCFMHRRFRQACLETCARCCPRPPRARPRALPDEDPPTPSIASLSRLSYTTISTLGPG

CCKBR [4] = biological target: T1, CCKBR; experiment: Calcium mobilization assay; format: cell-based; details: screening

Compound	Effect on TBS-induced CCKBR-LTP [1]	further results
O=S(=O)(NCCNC/C=C/c1ccc(Br)cc1)c1cccc2cnccc12 [H-89]	partially inhibited	
CNc1cccc(NC(=O)N[C@@H]2N=C(c3ccccn3)c3ccccc3N(CC(=O)C(C)(C)C)C2=O)c1 [YF476]	confirmed that the LTP was CCKBR-dependent	
NCCOB(c1ccccc1)c1ccccc1 [2-APB]	significantly and almost completely inhibited	
CSCC[C@H](NC(=O)[C@H](Cc1ccc(OS(=O)(=O)O)cc1)NC(=O)[C@@H](N)CC(=O)O)C(=O)NCC(=O)N[C@@H](Cc1c[nH]c2ccccc12)C(=O)N[C@@H](CCSC)C(=O)N[C@@H](CC(=O)O)C(=O)N[C@@H](Cc1ccccc1)C(N)=O [CCK8s]		Activation of β-arrestin2 downstream of GPR173 (GPR173 / β-arrestin2): could activate; LTP induction by drug with LFS (fEPSP amplitude) [2]: induced LTP; Activation of β-arrestin1 downstream of GPR173 (GPR173 / β-arrestin1): could activate
CCCC[C@H](NC(=O)[C@H](Cc1c[nH]c2ccccc12)N(C)C(=O)C1(O)C[C@H](O)[C@@H](NC(C)=O)[C@H]([C@H](O)[C@H](O)CO)O1)C(=O)N[C@@H](CC(=O)O)C(=O)N[C@@H](Cc1cccc(Br)c1)C(N)=O (stereo partly drawn) [MF-7] (Ac-[X1][NMeW][Nle]D[Phe(3-Br)]-NH2)		Induction of β-arrestin2 signaling (CCKBR [3]): highly potent; Activation of Gαq/11-Ca2+ signaling (CCKBR [4]): performed poorly
COc1ccc2c(c1)CC[C@@H]1[C@@H]2CC[C@]2(C)[C@@H](NCCCCCCN3C(=O)C=CC3=O)CC[C@@H]12 [U-73122]	significantly and almost completely inhibited	
C=C1C(=O)NC(C)C(=O)N(C)C(C)C(=O)NC(C(OC(=O)C(NC(C)=O)C(O)C(C)C)C(C)C)C(=O)N(C)C(C(C)OC)C(=O)OC(C)C(NC(C)=O)C(=O)OC(Cc2ccccc2)C(=O)N1C (stereo not drawn) [YM254890] (Ac-T[PhLac][NMeDha]A[NMeA][X2][NMeT](Me); ester 1-C; configuration not given here)	significantly and almost completely inhibited	
Nn1cnc2scc(-c3ccc(Cc4ccccc4)cc3)c2c1=O [barbadin]	could not inhibit	Effect on the inhibition of TBS-induced LTP by MF-8 ([1]; 2-h preincubation of barbadin + 200 nM MF-8): could indeed eliminate the inhibitory effect of MF-8
